Measured values reported in ChEMBL document CHEMBL5291721, “A preclinical secondary pharmacology resource illuminates target-adverse drug reaction associations of marketed drugs” (Nat Commun, 2023).
Where “and” joins values, the source holds several entries; their conditions need not be identical. Identical values can stand only once.

Assays:
[1] = target: T1, Adenosine receptor A3 (Homo sapiens, UniProt P0DMS8)
T1 sequence (P0DMS8 whole entry): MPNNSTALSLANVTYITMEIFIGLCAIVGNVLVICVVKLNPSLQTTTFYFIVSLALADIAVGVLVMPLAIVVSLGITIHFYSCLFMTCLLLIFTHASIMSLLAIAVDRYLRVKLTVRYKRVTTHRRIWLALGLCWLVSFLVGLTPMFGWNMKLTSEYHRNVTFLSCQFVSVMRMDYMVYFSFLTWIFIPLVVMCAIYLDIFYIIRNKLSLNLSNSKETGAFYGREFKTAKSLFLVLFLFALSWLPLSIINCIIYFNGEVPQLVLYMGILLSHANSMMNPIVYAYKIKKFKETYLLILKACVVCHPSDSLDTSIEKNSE

[2] = target: T2, Alpha-2B adrenergic receptor (Homo sapiens, UniProt P18089)
T2 sequence (P18089 whole entry): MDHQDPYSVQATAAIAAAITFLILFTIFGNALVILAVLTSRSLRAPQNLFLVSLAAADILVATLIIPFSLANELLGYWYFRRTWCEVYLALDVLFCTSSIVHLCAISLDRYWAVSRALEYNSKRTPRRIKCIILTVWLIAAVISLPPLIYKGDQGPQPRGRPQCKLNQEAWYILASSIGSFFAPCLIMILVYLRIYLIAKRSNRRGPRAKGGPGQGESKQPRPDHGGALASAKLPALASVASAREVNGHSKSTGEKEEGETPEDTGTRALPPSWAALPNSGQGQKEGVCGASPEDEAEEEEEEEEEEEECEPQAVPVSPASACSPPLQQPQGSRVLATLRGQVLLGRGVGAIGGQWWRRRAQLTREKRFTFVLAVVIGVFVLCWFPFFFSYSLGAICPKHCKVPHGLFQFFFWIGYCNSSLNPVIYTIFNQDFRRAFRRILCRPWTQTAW

[3] = target: Vasopressin V2 receptor (Homo sapiens, UniProt P30518)
Sequence of Vasopressin V2 receptor (P30518 whole entry): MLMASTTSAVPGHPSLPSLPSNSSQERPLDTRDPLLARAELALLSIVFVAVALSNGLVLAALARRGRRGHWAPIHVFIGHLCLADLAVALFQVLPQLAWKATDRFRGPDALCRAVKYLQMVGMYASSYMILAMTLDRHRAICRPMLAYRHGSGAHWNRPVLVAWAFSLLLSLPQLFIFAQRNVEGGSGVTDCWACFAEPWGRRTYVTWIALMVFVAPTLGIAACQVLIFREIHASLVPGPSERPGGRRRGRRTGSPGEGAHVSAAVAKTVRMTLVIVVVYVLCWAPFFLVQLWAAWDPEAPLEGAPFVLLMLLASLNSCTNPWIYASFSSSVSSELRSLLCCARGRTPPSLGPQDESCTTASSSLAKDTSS

[4] = target: T3, Muscarinic acetylcholine receptor M2 (Homo sapiens, UniProt P08172); type: functional, cell-based
T3 sequence (P08172 whole entry): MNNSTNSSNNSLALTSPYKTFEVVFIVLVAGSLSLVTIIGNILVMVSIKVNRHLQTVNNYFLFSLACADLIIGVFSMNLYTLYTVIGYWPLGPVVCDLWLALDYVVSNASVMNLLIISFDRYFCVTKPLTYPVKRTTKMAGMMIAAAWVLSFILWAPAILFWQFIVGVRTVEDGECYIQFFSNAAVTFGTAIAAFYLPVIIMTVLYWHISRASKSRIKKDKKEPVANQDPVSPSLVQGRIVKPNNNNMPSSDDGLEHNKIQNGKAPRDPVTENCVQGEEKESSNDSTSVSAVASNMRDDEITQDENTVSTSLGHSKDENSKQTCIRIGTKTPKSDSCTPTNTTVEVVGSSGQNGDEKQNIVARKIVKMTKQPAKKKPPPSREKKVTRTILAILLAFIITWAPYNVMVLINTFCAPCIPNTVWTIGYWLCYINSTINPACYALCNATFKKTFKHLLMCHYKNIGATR

[5] = target: Gamma-aminobutyric acid receptor subunit alpha-1 (Rattus norvegicus, UniProt P62813); type: functional
Sequence of Gamma-aminobutyric acid receptor subunit alpha-1 (P62813 whole entry): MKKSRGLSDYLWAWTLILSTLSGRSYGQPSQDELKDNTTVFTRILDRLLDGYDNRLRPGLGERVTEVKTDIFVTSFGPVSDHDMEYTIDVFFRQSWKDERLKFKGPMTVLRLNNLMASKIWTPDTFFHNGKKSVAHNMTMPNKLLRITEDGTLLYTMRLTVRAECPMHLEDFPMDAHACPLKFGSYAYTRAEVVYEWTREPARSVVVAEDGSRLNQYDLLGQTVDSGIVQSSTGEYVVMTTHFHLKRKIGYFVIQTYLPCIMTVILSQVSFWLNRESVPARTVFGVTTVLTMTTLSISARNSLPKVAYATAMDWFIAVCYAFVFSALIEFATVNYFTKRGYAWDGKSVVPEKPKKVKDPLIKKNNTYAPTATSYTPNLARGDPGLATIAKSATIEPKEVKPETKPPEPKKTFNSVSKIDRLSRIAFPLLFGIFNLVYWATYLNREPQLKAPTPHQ

[6] = target: Kappa-type opioid receptor (Homo sapiens, UniProt P41145)
Sequence of Kappa-type opioid receptor (P41145 whole entry): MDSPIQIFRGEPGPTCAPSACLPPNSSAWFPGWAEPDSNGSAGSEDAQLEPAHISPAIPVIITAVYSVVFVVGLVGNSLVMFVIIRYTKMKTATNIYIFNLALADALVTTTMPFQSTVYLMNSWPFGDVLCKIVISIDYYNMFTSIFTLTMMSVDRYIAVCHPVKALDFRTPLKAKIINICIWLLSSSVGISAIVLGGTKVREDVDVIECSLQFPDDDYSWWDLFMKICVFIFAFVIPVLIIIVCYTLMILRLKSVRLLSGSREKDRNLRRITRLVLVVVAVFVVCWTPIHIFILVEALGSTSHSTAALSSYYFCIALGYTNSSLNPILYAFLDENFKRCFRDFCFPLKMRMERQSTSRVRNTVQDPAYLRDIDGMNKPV

[7] = target: T4, Progesterone receptor (Homo sapiens, UniProt P06401); type: functional
T4 sequence (P06401 whole entry): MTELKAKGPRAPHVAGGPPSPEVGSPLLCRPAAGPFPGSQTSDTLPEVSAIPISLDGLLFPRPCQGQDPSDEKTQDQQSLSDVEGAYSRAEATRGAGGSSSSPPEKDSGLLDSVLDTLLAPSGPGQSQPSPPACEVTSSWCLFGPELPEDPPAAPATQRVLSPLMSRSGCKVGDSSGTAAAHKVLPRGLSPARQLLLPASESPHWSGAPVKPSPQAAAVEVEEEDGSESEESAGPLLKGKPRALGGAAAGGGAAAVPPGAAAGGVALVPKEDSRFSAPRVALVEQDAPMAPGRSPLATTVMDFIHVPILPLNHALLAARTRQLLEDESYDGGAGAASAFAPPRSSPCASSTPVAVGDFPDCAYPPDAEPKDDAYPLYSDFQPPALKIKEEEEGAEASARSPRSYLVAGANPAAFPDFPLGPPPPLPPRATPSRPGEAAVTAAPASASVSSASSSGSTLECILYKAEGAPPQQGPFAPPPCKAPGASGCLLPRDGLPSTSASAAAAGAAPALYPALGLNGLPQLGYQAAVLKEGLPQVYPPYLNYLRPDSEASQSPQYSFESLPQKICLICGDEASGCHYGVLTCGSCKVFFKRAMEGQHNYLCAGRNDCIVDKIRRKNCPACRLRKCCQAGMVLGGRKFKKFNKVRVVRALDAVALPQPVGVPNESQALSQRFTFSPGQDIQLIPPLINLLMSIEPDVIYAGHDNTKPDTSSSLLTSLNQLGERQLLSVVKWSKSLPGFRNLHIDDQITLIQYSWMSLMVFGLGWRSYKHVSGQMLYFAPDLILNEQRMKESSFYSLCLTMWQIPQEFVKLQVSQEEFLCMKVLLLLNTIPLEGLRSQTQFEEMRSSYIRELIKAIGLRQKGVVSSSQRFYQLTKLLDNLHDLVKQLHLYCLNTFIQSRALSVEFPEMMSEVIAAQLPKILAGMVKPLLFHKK

[8] = target: T5, Amine oxidase [flavin-containing] A (Homo sapiens, UniProt P21397); type: functional
T5 sequence (P21397 whole entry): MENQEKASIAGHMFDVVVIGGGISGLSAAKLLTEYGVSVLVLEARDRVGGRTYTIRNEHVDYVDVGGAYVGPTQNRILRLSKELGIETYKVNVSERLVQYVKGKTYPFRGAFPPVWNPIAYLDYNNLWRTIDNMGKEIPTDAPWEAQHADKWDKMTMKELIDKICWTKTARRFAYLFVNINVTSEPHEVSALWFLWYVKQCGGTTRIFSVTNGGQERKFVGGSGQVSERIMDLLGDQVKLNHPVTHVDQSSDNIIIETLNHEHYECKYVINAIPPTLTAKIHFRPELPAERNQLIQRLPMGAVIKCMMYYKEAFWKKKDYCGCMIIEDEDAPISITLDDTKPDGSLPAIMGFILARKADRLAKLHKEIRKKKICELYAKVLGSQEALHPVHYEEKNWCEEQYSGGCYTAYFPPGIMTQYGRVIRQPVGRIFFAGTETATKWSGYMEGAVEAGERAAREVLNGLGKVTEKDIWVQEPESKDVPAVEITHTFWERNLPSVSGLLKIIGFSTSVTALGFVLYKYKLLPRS

[9] = target: D(3) dopamine receptor (Homo sapiens, UniProt P35462)
Sequence of D(3) dopamine receptor (P35462 whole entry): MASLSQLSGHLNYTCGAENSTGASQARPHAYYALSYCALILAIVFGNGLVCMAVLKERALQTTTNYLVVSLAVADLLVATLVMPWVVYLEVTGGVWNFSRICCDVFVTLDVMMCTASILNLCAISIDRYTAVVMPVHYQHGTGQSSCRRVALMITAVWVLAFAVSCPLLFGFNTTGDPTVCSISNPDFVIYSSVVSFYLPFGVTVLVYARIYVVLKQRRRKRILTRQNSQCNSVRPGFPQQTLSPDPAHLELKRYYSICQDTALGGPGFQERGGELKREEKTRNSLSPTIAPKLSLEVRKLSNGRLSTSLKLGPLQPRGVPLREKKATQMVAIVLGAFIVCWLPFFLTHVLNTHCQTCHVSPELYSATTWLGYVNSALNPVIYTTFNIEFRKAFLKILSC
Also: assay procedure not described here.

SMILES | AC50 [1] | AC50 [2] [µM] | AC50 [3] [µM] | AC50 [4] [µM] | AC50 [5] [µM] | AC50 [6] [µM] | AC50 [7] [µM] | AC50 [8] [µM] | AC50 [9] [µM]
C[C@H](CSC(=O)c1ccccc1)C(=O)N1C[C@@H](Sc2ccccc2)C[C@H]1C(=O)O [ZOFENOPRIL] | > 10 µM | > 10 | > 10 | > 10 | > 10 | > 10 | > 10 | > 10 | > 30
N#Cc1ccc([C@H]2CCc3cncn32)c(F)c1 [OSILODROSTAT] | > 10 µM | > 10 |  |  | > 10 | > 10 |  |  | > 10
CO[C@@H]1[C@@H](O[C@@H]2O[C@H](C)[C@@H](O[C@H]3C[C@@](C)(O)[C@@H](OC(=O)CC(C)C)[C@H](C)O3)[C@H](N(C)C)[C@H]2O)[C@@H](CC=O)C[C@@H](C)[C@@H](O)/C=C/C=C/C[C@@H](C)OC(=O)C[C@H]1OC(C)=O [JOSAMYCIN] | > 10 µM | > 10 | > 10 | > 10 | > 10 | > 10 | > 10 | > 10 | > 30
O=C(O)C1=C(CSc2nnnn2CS(=O)(=O)O)CS[C@@H]2[C@H](NC(=O)[C@H](O)c3ccccc3)C(=O)N12 [CEFONICID] | > 30 µM | > 30 | > 30 | > 30 | > 30 | > 30 | > 30 | > 30 | > 30
Cc1cccc(C(C)c2cnc[nH]2)c1C (configuration not stated) [MEDETOMIDINE] | > 30 µM | 2.1 | > 30 | > 10 | > 10 | > 30 | > 30 | > 30 | > 30
CCCC(C)C1(CC)C(=O)NC(=O)NC1=O (configuration not stated) [PENTOBARBITAL] | > 10 µM | > 30 | > 10 | > 10 |  | > 10 | > 10 | > 30 | > 30
O=C(O)CCCCCCCC(=O)O [AZELAIC ACID] | > 10 µM | > 10 | > 10 | > 10 | > 10 | > 10 | > 10 | > 10 | > 30
C=CCC1(C(C)CC)C(=O)NC(=O)NC1=O (configuration not stated) [TALBUTAL] | > 10 µM | > 10 | > 10 | > 10 | > 10 | > 10 | > 10 | > 10 | > 30
CC1(C)O[C@@H]2C[C@H]3[C@@H]4CCC5=CC(=O)C=C[C@]5(C)[C@H]4[C@@H](O)C[C@]3(C)[C@]2(C(=O)CO)O1 [DESONIDE] | > 10 µM | > 10 | > 10 | > 10 | > 10 | > 10 |  | > 10 | > 30
COC(=O)[C@H]1[C@H]2C[C@@H]3c4[nH]c5cc(OC)ccc5c4CCN3C[C@H]2C[C@@H](OC(=O)/C=C/c2cc(OC)c(OC)c(OC)c2)[C@@H]1OC [RESCINNAMINE] | > 30 µM | > 10 | > 10 | > 10 | > 10 | > 30 | > 10 | > 10 | > 30
CCc1c(Cl)c(O)c(Cl)c(O)c1C(=O)O[C@H]1[C@H](O)[C@H](OC)[C@H](OC/C2=C\C=C\C[C@H](O)/C(C)=C/[C@H](CC)[C@@H](O[C@@H]3OC(C)(C)[C@@H](OC(=O)C(C)C)[C@H](O)[C@@H]3O)/C(C)=C/C(C)=C/C[C@@H]([C@@H](C)O)OC2=O)O[C@@H]1C [FIDAXOMICIN] | 17.1 µM and > 30 µM | > 10 | > 30 |  | > 10 | > 10 | > 30 | > 30 | > 30
Cc1cc(O)c(C(=O)N[C@@H](C(=O)N[C@@H]2C(=O)N3C(C(=O)O)=C(CSc4nnnn4C)CS[C@H]23)c2ccc(O)cc2)cn1 [CEFPIRAMIDE] | > 30 µM | > 30 | > 30 | > 30 | > 30 | > 30 | > 30 | > 30 | > 30
CC(C)(C)c1cc(C(C)(C)C)c(NC(=O)c2c[nH]c3ccccc3c2=O)cc1O [IVACAFTOR] | 2.3 µM | > 10 | > 30 |  | > 10 | > 10 |  | > 10 | > 30
CCCC(=O)O[C@]1(C(=O)CO)CC[C@H]2[C@@H]3CCC4=CC(=O)CC[C@]4(C)[C@H]3[C@@H](O)C[C@@]21C [HYDROCORTISONE BUTYRATE] | > 10 µM | > 10 | > 10 | > 10 | > 10 | > 10 |  | > 10 | > 30
C[C@]1(O)CC[C@H]2[C@@H]3CCC4=CC(=O)CC[C@]4(C)[C@@]3(F)[C@@H](O)C[C@@]21C [FLUOXYMESTERONE] | > 10 µM | > 30 | > 10 | > 10 | > 10 | > 10 |  | > 30 | > 30
C#C[C@]1(O)CC[C@H]2[C@@H]3CCc4cc(OC5CCCC5)ccc4[C@H]3CC[C@@]21C [QUINESTROL] | > 10 µM | > 10 | > 10 | > 10 | > 10 | > 10 |  | > 10 | > 30
